Source: ChEMBL document CHEMBL3875154 (Eur J Med Chem, 2016)
pIC50: −log10 of the molar value.

What was measured:
[1] = Inhibition of human PDE4 catalytic domain using FAM-3',5'-cAMP as substrate after 1 hr by fluorescence polarization assay
Homo sapiens = species on record: Homo sapiens; experiment: Potency index, ratio of rolipram IC50 to test compound IC50 for human PDE4 catalytic domain
[2] = target: T1, cGMP-inhibited 3',5'-cyclic phosphodiesterase 3B (Homo sapiens, UniProt Q13370); experiment: Inhibition of human PDE3B using FAM-3',5'-cAMP as substrate after 1 hr by fluorescence polarization assay
Target sequence in this assay (Q13370 whole entry): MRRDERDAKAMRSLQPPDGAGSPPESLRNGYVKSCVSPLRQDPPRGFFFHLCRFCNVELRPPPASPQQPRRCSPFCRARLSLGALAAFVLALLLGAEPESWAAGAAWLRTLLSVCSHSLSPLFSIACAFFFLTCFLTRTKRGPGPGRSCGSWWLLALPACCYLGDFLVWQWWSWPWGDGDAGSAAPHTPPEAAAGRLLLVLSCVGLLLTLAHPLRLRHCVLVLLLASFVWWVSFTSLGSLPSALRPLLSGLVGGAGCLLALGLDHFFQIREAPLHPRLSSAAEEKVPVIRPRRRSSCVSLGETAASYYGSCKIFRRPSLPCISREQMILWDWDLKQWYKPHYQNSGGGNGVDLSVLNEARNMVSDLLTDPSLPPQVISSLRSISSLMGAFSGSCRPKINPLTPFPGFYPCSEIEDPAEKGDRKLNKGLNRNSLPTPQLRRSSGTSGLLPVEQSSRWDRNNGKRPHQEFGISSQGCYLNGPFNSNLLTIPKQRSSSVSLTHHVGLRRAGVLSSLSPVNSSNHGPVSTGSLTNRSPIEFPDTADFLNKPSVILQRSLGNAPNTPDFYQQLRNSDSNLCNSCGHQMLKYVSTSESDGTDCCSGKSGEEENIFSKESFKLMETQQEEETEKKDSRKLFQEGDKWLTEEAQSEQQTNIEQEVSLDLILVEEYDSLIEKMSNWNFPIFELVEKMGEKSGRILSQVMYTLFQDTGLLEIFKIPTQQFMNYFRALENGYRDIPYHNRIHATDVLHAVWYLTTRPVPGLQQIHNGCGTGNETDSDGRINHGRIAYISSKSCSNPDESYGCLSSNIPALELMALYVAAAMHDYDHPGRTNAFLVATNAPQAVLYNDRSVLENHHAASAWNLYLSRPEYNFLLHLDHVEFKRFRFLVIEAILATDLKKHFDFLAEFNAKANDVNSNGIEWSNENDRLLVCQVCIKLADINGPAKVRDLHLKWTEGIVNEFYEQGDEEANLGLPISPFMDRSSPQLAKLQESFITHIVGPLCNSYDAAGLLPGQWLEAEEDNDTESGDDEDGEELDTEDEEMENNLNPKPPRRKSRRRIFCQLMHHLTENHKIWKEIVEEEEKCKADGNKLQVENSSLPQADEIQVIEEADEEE

[3] = target: T2, High affinity cAMP-specific and IBMX-insensitive 3',5'-cyclic phosphodiesterase 8A (Homo sapiens, UniProt O60658); experiment: Inhibition of human PDE8A1 using FAM-3',5'-cAMP as substrate after 1 hr by fluorescence polarization assay
[4] = target: T3, cGMP-dependent 3',5'-cyclic phosphodiesterase (Homo sapiens, UniProt O00408); experiment: Inhibition of human PDE2A using FAM-3',5'-cAMP as substrate after 1 hr by fluorescence polarization assay
T3 sequence (O00408 whole entry): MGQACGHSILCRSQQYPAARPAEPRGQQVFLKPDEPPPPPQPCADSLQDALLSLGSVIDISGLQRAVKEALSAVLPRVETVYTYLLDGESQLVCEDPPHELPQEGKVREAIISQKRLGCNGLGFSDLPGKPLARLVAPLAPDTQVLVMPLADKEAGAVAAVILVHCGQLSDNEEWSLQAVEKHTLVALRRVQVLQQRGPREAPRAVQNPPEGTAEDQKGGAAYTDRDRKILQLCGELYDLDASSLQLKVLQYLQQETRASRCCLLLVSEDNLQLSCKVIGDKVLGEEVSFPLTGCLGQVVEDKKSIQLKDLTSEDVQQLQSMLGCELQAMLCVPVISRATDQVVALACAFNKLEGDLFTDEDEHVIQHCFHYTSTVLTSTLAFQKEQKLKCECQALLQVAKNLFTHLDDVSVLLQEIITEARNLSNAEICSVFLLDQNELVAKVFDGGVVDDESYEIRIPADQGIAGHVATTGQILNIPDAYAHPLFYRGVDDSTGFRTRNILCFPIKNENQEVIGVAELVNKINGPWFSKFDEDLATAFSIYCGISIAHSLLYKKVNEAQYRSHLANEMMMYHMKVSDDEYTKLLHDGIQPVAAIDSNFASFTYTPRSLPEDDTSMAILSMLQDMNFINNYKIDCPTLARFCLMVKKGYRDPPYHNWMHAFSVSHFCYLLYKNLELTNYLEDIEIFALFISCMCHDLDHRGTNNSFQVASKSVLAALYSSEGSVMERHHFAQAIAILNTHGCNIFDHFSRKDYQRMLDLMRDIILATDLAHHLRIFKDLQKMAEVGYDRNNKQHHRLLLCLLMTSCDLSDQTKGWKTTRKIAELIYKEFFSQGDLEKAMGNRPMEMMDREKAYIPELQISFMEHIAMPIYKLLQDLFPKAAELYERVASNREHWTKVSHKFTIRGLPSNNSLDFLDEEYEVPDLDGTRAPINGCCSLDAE

[5] = target: T4, Cone cGMP-specific 3',5'-cyclic phosphodiesterase subunit alpha' (Homo sapiens, UniProt P51160); experiment: Inhibition of human PDE6C at 10^4 nM using FAM-3',5'-cAMP as substrate after 1 hr by fluorescence polarization assay relative to control
[6] = target: T5, 3',5'-cyclic-AMP phosphodiesterase 4C (Homo sapiens, UniProt Q08493); experiment: Inhibition of full length human PDE4C1 at 10^4 nM using FAM-3',5'-cAMP as substrate after 1 hr by fluorescence polarization assay relative to control
T5 sequence (Q08493 whole entry): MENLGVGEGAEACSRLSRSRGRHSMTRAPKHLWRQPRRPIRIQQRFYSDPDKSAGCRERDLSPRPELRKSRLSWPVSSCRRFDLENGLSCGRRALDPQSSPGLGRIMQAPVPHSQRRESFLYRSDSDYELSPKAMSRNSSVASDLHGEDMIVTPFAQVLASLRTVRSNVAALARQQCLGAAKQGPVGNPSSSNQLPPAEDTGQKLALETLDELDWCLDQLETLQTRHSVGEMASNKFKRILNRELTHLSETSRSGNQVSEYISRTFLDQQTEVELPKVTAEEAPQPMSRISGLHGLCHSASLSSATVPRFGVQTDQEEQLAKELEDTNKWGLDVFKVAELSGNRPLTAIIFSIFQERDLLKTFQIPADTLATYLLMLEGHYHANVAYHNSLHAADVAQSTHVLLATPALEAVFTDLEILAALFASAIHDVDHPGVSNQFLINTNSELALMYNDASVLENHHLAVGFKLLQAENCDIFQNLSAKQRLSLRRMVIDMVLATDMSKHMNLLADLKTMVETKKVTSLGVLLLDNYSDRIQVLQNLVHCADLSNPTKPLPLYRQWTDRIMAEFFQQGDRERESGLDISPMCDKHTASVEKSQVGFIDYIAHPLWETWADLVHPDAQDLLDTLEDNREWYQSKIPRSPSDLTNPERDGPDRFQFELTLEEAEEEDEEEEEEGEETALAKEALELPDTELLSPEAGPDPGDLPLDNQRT

[7] = target: T6, cAMP and cAMP-inhibited cGMP 3',5'-cyclic phosphodiesterase 10A (Homo sapiens, UniProt Q9Y233); experiment: Inhibition of human PDE10A2 at 10^4 nM using FAM-3',5'-cAMP as substrate after 1 hr by fluorescence polarization assay relative to control
[8] = target: T7, High affinity cGMP-specific 3',5'-cyclic phosphodiesterase 9A (Homo sapiens, UniProt O76083); experiment: Inhibition of human PDE9A2 at 10^4 nM using FAM-3',5'-cAMP as substrate after 1 hr by fluorescence polarization assay relative to control
[9] = target: T8, High affinity 3',5'-cyclic-AMP phosphodiesterase 7A (Homo sapiens, UniProt Q13946); experiment: Inhibition of human PDE7A using FAM-3',5'-cAMP as substrate after 1 hr by fluorescence polarization assay
T8 sequence (Q13946 whole entry): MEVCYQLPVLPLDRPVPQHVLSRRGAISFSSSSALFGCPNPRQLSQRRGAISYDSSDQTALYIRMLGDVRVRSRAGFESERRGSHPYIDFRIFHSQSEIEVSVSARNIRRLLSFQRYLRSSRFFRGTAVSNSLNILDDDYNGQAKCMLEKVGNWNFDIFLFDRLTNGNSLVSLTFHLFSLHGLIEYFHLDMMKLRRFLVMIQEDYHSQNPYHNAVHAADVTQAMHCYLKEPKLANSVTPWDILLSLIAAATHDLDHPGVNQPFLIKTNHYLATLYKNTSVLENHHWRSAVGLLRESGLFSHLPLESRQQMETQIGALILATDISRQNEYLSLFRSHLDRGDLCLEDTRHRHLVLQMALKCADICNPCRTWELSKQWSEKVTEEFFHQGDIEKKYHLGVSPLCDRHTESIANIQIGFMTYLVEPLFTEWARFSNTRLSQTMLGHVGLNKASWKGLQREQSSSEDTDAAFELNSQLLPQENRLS

[10] = target: T8, High affinity 3',5'-cyclic-AMP phosphodiesterase 7A; experiment: Inhibition of human PDE7A at 10^4 nM using FAM-3',5'-cAMP as substrate after 1 hr by fluorescence polarization assay relative to control
[11] = target: T9, 3',5'-cyclic-AMP phosphodiesterase 4D (Homo sapiens, UniProt Q08499); experiment: Inhibition of full length human PDE4D7 using FAM-3',5'-cAMP as substrate after 1 hr by fluorescence polarization assay
T9 sequence (Q08499 whole entry): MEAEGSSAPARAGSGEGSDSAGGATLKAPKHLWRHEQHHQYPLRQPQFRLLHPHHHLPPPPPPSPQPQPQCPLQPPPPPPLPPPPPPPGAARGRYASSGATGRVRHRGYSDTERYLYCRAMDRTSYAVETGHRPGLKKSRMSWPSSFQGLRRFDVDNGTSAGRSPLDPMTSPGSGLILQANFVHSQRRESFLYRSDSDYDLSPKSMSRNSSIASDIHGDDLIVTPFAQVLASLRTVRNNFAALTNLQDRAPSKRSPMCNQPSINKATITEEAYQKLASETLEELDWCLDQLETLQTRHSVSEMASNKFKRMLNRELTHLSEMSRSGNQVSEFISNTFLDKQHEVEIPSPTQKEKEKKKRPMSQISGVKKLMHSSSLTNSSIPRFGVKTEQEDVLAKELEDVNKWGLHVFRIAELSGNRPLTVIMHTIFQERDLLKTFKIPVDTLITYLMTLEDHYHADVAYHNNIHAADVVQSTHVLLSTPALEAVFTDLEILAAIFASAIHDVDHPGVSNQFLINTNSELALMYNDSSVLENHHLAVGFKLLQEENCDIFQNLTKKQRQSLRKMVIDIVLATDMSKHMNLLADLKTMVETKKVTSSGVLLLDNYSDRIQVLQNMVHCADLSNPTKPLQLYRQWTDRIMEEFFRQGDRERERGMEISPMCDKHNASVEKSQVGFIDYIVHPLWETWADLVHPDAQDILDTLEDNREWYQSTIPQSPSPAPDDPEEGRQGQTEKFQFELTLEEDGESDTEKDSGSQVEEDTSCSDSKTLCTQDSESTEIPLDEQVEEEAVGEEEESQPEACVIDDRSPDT

[12] = target: T6, cAMP and cAMP-inhibited cGMP 3',5'-cyclic phosphodiesterase 10A; experiment: Inhibition of human PDE10A2 using FAM-3',5'-cAMP as substrate after 1 hr by fluorescence polarization assay
[13] = target: T10, 3',5'-cyclic-AMP phosphodiesterase 4B (Homo sapiens, UniProt Q07343); experiment: Inhibition of full length human PDE4B1 using FAM-3',5'-cAMP as substrate after 1 hr by fluorescence polarization assay
[14] = target: T11, 3',5'-cyclic-AMP phosphodiesterase 4A (Homo sapiens, UniProt P27815); experiment: Inhibition of full length human PDE4A4 using FAM-3',5'-cAMP as substrate after 1 hr by fluorescence polarization assay
T11 sequence (P27815 whole entry): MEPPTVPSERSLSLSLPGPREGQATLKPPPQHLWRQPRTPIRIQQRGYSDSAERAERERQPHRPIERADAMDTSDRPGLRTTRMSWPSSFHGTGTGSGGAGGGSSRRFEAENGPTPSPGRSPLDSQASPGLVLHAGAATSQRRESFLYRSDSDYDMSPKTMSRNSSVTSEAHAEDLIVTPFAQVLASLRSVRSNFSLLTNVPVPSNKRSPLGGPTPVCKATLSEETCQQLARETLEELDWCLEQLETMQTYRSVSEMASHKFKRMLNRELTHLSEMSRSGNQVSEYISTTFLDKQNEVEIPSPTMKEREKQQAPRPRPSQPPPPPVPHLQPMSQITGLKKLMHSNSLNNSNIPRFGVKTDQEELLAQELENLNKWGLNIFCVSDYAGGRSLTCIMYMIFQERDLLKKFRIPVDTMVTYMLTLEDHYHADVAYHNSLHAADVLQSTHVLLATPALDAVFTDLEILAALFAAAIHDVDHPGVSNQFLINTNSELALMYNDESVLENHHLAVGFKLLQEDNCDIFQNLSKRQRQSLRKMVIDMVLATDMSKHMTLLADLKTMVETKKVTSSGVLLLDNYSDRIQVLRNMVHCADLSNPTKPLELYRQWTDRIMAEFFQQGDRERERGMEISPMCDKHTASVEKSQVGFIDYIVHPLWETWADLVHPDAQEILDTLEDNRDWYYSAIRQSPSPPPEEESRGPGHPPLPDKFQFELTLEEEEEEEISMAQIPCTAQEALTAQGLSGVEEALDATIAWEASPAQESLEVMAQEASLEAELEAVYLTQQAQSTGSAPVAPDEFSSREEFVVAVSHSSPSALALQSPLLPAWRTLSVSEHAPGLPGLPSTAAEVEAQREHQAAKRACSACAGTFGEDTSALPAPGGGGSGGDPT

[15] = target: T4, Cone cGMP-specific 3',5'-cyclic phosphodiesterase subunit alpha'; experiment: Inhibition of human PDE6C using FAM-3',5'-cAMP as substrate after 1 hr by fluorescence polarization assay
[16] = target: T12, Dual 3',5'-cyclic-AMP and -GMP phosphodiesterase 11A (Homo sapiens, UniProt Q9HCR9); experiment: Inhibition of human PDE11A using FAM-3',5'-cAMP as substrate after 1 hr by fluorescence polarization assay
[17] = target: T13, Dual specificity calcium/calmodulin-dependent 3',5'-cyclic nucleotide phosphodiesterase 1A (Homo sapiens, UniProt P54750); experiment: Inhibition of human PDE1A at 10^4 nM using FAM-3',5'-cAMP as substrate after 1 hr by fluorescence polarization assay relative to control
[18] = target: T3, cGMP-dependent 3',5'-cyclic phosphodiesterase; experiment: Inhibition of human PDE2A at 10^4 nM using FAM-3',5'-cAMP as substrate after 1 hr by fluorescence polarization assay relative to control
[19] = target: T12, Dual 3',5'-cyclic-AMP and -GMP phosphodiesterase 11A; experiment: Inhibition of human PDE11A at 10^4 nM using FAM-3',5'-cAMP as substrate after 1 hr by fluorescence polarization assay relative to control
[20] = target: T1, cGMP-inhibited 3',5'-cyclic phosphodiesterase 3B; experiment: Inhibition of human PDE3B at 10^4 nM using FAM-3',5'-cAMP as substrate after 1 hr by fluorescence polarization assay relative to control
Target sequence in this assay (Q13370 whole entry, looked up): as the sequence (Q13370 whole entry) above

[21] = target: T14, cGMP-specific 3',5'-cyclic phosphodiesterase (Homo sapiens, UniProt O76074); experiment: Inhibition of human PDE5A at 10^4 nM using FAM-3',5'-cAMP as substrate after 1 hr by fluorescence polarization assay relative to control
[22] = target: T9, 3',5'-cyclic-AMP phosphodiesterase 4D; experiment: Inhibition of full length human PDE4D7 at 10^4 nM using FAM-3',5'-cAMP as substrate after 1 hr by fluorescence polarization assay relative to control
[23] = target: T11, 3',5'-cyclic-AMP phosphodiesterase 4A; experiment: Inhibition of full length human PDE4A4 at 10^4 nM using FAM-3',5'-cAMP as substrate after 1 hr by fluorescence polarization assay relative to control
[24] = target: T10, 3',5'-cyclic-AMP phosphodiesterase 4B; experiment: Inhibition of full length human PDE4B1 at 10^4 nM using FAM-3',5'-cAMP as substrate after 1 hr by fluorescence polarization assay relative to control
[25] = target: T14, cGMP-specific 3',5'-cyclic phosphodiesterase; experiment: Inhibition of human PDE5A using FAM-3',5'-cAMP as substrate after 1 hr by fluorescence polarization assay
[26] = target: T7, High affinity cGMP-specific 3',5'-cyclic phosphodiesterase 9A; experiment: Inhibition of human PDE9A2 using FAM-3',5'-cAMP as substrate after 1 hr by fluorescence polarization assay
[27] = target: T13, Dual specificity calcium/calmodulin-dependent 3',5'-cyclic nucleotide phosphodiesterase 1A; experiment: Inhibition of human PDE1A using FAM-3',5'-cAMP as substrate after 1 hr by fluorescence polarization assay
[28] = target: T5, 3',5'-cyclic-AMP phosphodiesterase 4C; experiment: Inhibition of full length human PDE4C1 using FAM-3',5'-cAMP as substrate after 1 hr by fluorescence polarization assay
[29] = target: T2, High affinity cAMP-specific and IBMX-insensitive 3',5'-cyclic phosphodiesterase 8A; experiment: Inhibition of human PDE8A1 at 10^4 nM using FAM-3',5'-cAMP as substrate after 1 hr by fluorescence polarization assay relative to control
BV-2 = experiment: Antineuroinflammatory activity in mouse BV2 cells assessed as inhibition of LPS-induced TNFalpha production; assay type: functional, cell-based

| SMILES | pIC50 [1] | Ratio IC50 (Homo sapiens) | pIC50 [2] | pIC50 [3] | pIC50 [4] | inhibition [5] [%] | inhibition [6] [%] | inhibition [7] [%] | inhibition [8] [%] | pIC50 [9] | inhibition [10] [%] | pIC50 [11] | pIC50 [12] | pIC50 [13] | pIC50 [14] | pIC50 [15] | inhibition [17] [%] | inhibition [18] [%] | inhibition [19] [%] | inhibition [20] [%] | further results |
| --- | --- | --- | --- | --- | --- | --- | --- | --- | --- | --- | --- | --- | --- | --- | --- | --- | --- | --- | --- | --- | --- |
| COc1ccc(C(=O)N(C)c2ccccn2)cc1OCC1CC1 | 4.60 |  |  |  |  |  |  |  |  |  |  |  |  |  |  |  |  |  |  |  |  |
| COc1ccc(C(=O)Nc2cccnc2)cc1OCC1CC1 | 6.44 | < 18 |  |  |  |  |  |  |  |  |  |  |  |  |  |  |  |  |  |  |  |
| CN(C(=O)c1ccc(OC(F)F)c(OC2CCCC2)c1)c1ccccn1 | 5.85 |  |  |  |  |  |  |  |  |  |  |  |  |  |  |  |  |  |  |  |  |
| O=C(Nc1ccccc1Cl)c1ccc(OC(F)F)c(OC2CCCC2)c1 | 7.52 | < 18 | < 4.00 | < 4.00 | < 4.00 | 2 | 97 | 6 | 6 | < 4.00 | 3 | 7.66 | < 4.00 | 6.84 | 7.02 | < 4.00 | 3 | 28 | 7 | 6 | pIC50 [16]: < 4.00; inhibition [21]: 7%; inhibition [22]: 99%; inhibition [23]: 98%; inhibition [24]: 100%; pIC50 [25]: < 4.00; pIC50 [26]: < 4.00; pIC50 [27]: < 4.00; pIC50 [28]: 6.40; inhibition [29]: 10% |
| O=C(Nc1ccccc1)c1ccc(OC(F)F)c(OCC2CC2)c1 | 6.66 | < 18 |  |  |  |  |  |  |  |  |  |  |  |  |  |  |  |  |  |  |  |
| COc1ccc(C(=O)N(C)c2ccccn2)cc1OC1CCCC1 | 5.01 |  |  |  |  |  |  |  |  |  |  |  |  |  |  |  |  |  |  |  |  |
| COc1ccc(C2CNC(=O)C2)cc1OC1CCCC1 (configuration not stated) [ROLIPRAM] | 6.26 |  |  |  |  |  |  |  |  |  |  |  |  |  |  |  |  |  |  |  |  |
| O=C(Nc1ccccc1Cl)c1ccc(OC(F)F)c(OCC2CC2)c1 | 7.05 | < 18 | < 4.00 | < 4.00 | < 4.00 | 2 | 96 | 3 | 3 | < 4.00 | 7 | 7.41 | < 4.00 | 6.78 | 6.90 | < 4.00 | 6 | 8 | 5 | 13 | pIC50 [16]: < 4.00; inhibition (BV-2): Dose-dependent effect; inhibition [21]: 12%; inhibition [22]: 99%; inhibition [23]: 100%; inhibition [24]: 98%; pIC50 [25]: < 4.00; pIC50 [26]: < 4.00; pIC50 [27]: < 4.00; pIC50 [28]: 6.30; inhibition [29]: 3% |
| O=C(Nc1ccccc1)c1ccc(OC(F)F)c(OC2CCCC2)c1 | 6.62 | < 18 |  |  |  |  |  |  |  |  |  |  |  |  |  |  |  |  |  |  |  |
| CN(C(=O)c1ccc(OC(F)F)c(OCC2CC2)c1)c1ccccn1 | 5.60 |  |  |  |  |  |  |  |  |  |  |  |  |  |  |  |  |  |  |  |  |
| COc1ccc(C(=O)Nc2cccnc2)cc1OC1CCCC1 | 6.51 | < 18 |  |  |  |  |  |  |  |  |  |  |  |  |  |  |  |  |  |  |  |
| O=C(Nc1cccnc1)c1ccc(OC(F)F)c(OC2CCCC2)c1 | 6.85 | < 18 | < 4.00 | < 4.00 | < 4.00 | 16 | 98 | 9 | 4 | < 4.00 | 3 | 7.17 | < 4.00 | 7.41 | 6.93 | < 4.00 | 0 | 26 | 76 | 6 | inhibition [21]: 12%; inhibition [22]: 99%; inhibition [23]: 98%; inhibition [24]: 99%; pIC50 [25]: < 4.00; pIC50 [26]: < 4.00; pIC50 [27]: < 4.00; pIC50 [28]: 6.53; inhibition [29]: 9% |
| O=C(Nc1cccnc1)c1ccc(OC(F)F)c(OCC2CC2)c1 | 7.16 | < 18 | < 4.00 | < 4.00 | < 4.00 | 28 | 98 | 14 | 8 | < 4.00 | 7 | 7.15 | < 4.00 | 7.47 | 7.12 | < 4.00 | 20 | 23 | 85 | 6 | inhibition [21]: 23%; inhibition [22]: 100%; inhibition [23]: 98%; inhibition [24]: 99%; pIC50 [25]: < 4.00; pIC50 [26]: < 4.00; pIC50 [27]: < 4.00; pIC50 [28]: 6.57; inhibition [29]: 22% |
